According to PubChem BioAssay (NCI):
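A five-concentration, 48-hour dose response in 96-well plates underlies each endpoint, interpolated linearly between surrounding concentrations. At the TGI there is no net growth.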

Experiments:
Experiment in all cases: DTP human tumour cell line panel, 48 h
NCI-H226 lung = test system: NCI-H226 lung
SNB-75 CNS = test system: SNB-75 CNS
TK-10 renal = test system: TK-10 renal
OVCAR-3 ovarian = test system: OVCAR-3 ovarian
CAKI-1 renal = test system: CAKI-1 renal
LOX IMVI melanoma = test system: LOX IMVI melanoma
M19-MEL melanoma = test system: M19-MEL melanoma
A549 NSCLC = test system: A549 NSCLC
K-562 leukemia = test system: K-562 leukemia
786-0 renal = test system: 786-0 renal
SF-539 CNS = test system: SF-539 CNS
ACHN renal = test system: ACHN renal
HOP-92 NSCLC = test system: HOP-92 NSCLC
UACC-62 melanoma = test system: UACC-62 melanoma
HCT-116 colon = test system: HCT-116 colon
SW-620 colon = test system: SW-620 colon
KM20L2 colon = test system: KM20L2 colon
HT29 colon = test system: HT29 colon
SK-MEL-28 melanoma = test system: SK-MEL-28 melanoma
DMS 273 small cell lung = test system: DMS 273 small cell lung
KM12 colon = test system: KM12 colon
SF-268 CNS = test system: SF-268 CNS
M14 melanoma = test system: M14 melanoma
SK-OV-3 ovarian = test system: SK-OV-3 ovarian
SF-295 CNS = test system: SF-295 CNS
MOLT-4 leukemia = test system: MOLT-4 leukemia
SR leukemia = test system: SR leukemia
LXFL 529 NSCLC = test system: LXFL 529 NSCLC
IGROV1 ovarian = test system: IGROV1 ovarian
SK-MEL-5 melanoma = test system: SK-MEL-5 melanoma
CCRF-CEM leukemia = test system: CCRF-CEM leukemia
DLD-1 colon = test system: DLD-1 colon
NCI-H522 lung = test system: NCI-H522 lung
RPMI-8226 leukemia = test system: RPMI-8226 leukemia
EKVX NSCLC = test system: EKVX NSCLC
UACC-257 melanoma = test system: UACC-257 melanoma
HL-60(TB) leukemia = test system: HL-60(TB) leukemia
COLO 205 colon = test system: COLO 205 colon
SN12C renal = test system: SN12C renal
MALME-3M melanoma = test system: MALME-3M melanoma
NCI/ADR-RES ovarian = test system: NCI/ADR-RES ovarian
NCI-H460 lung = test system: NCI-H460 lung
OVCAR-5 ovarian = test system: OVCAR-5 ovarian
MDA-N = test system: MDA-N
RXF 393 renal = test system: RXF 393 renal
HOP-62 NSCLC = test system: HOP-62 NSCLC
HS 578T breast = test system: HS 578T breast
UO-31 renal = test system: UO-31 renal
BT-549 breast = test system: BT-549 breast
MCF7 breast = test system: MCF7 breast
OVCAR-4 ovarian = test system: OVCAR-4 ovarian
HCC-2998 colon = test system: HCC-2998 colon
SNB-19 CNS = test system: SNB-19 CNS
PC-3 prostate = test system: PC-3 prostate
SK-MEL-2 melanoma = test system: SK-MEL-2 melanoma
U251 CNS = test system: U251 CNS
OVCAR-8 ovarian = test system: OVCAR-8 ovarian
A498 renal = test system: A498 renal
MDA-MB-231 breast = test system: MDA-MB-231 breast
HCT-15 colon = test system: HCT-15 colon
DU-145 prostate = test system: DU-145 prostate
MDA-MB-435 = test system: MDA-MB-435
T-47D breast = test system: T-47D breast
NCI-H23 lung = test system: NCI-H23 lung

## N#CC(c1ccc(Cl)cc1)c1c(O)nc2ccc(=N)cc-2n1O (stereo unspecified)
NCI-H226 lung
  TGI: > 100 µM
SNB-75 CNS
  TGI: > 100 µM
TK-10 renal
  TGI: > 100 µM
OVCAR-3 ovarian
  TGI: > 100 µM
CAKI-1 renal
  TGI: > 100 µM
LOX IMVI melanoma
  TGI: > 100 µM
M19-MEL melanoma
  TGI: > 100 µM
A549 NSCLC
  TGI: > 100 µM
K-562 leukemia
  TGI: > 100 µM
786-0 renal
  TGI: > 100 µM
SF-539 CNS
  TGI: > 100 µM
ACHN renal
  TGI: > 100 µM
HOP-92 NSCLC
  TGI: > 100 µM
UACC-62 melanoma
  TGI: > 100 µM
HCT-116 colon
  TGI: > 100 µM
SW-620 colon
  TGI: > 100 µM
KM20L2 colon
  TGI: > 100 µM
HT29 colon
  TGI: > 100 µM
SK-MEL-28 melanoma
  TGI: > 100 µM
DMS 273 small cell lung
  TGI: > 100 µM
KM12 colon
  TGI: > 100 µM
SF-268 CNS
  TGI: > 100 µM
M14 melanoma
  TGI: > 100 µM
SK-OV-3 ovarian
  TGI: > 100 µM
SF-295 CNS
  TGI: > 100 µM
MOLT-4 leukemia
  TGI: > 100 µM
SR leukemia
  TGI: > 100 µM
LXFL 529 NSCLC
  TGI: > 100 µM
IGROV1 ovarian
  TGI: > 100 µM
SK-MEL-5 melanoma
  TGI: > 100 µM
CCRF-CEM leukemia
  TGI: > 100 µM
DLD-1 colon
  TGI: > 100 µM
NCI-H522 lung
  TGI: > 100 µM
RPMI-8226 leukemia
  TGI: > 100 µM
EKVX NSCLC
  TGI: > 100 µM
UACC-257 melanoma
  TGI: > 100 µM
HL-60(TB) leukemia
  TGI: > 100 µM

## CC(=O)NC1=C(C)C(=O)c2c(nc3n2CCC3OC(=O)c2ccccc2)C1=N (stereo unspecified)
COLO 205 colon
  TGI: 3.27 µM
NCI-H226 lung
  TGI: 13.9 µM
SNB-75 CNS
  TGI: 5.27 µM
TK-10 renal
  TGI: 9.17 µM
OVCAR-3 ovarian
  TGI: 5.71 µM
CAKI-1 renal
  TGI: 4 µM
LOX IMVI melanoma
  TGI: 1.33 µM
A549 NSCLC
  TGI: 11 µM
SN12C renal
  TGI: 3.16 µM
MALME-3M melanoma
  TGI: 2.45 µM
K-562 leukemia
  TGI: 5.65 µM
786-0 renal
  TGI: 3.65 µM
SF-539 CNS
  TGI: 2.56 µM
NCI/ADR-RES ovarian
  TGI: 8.52 µM
ACHN renal
  TGI: 3.13 µM
NCI-H460 lung
  TGI: 3.07 µM
OVCAR-5 ovarian
  TGI: 7.36 µM
HOP-92 NSCLC
  TGI: 5.47 µM
UACC-62 melanoma
  TGI: 1.09 µM
HCT-116 colon
  TGI: 21.2 µM
SW-620 colon
  TGI: 5.17 µM
HT29 colon
  TGI: 3.96 µM
MDA-N
  TGI: 0.347 µM
SK-MEL-28 melanoma
  TGI: 3.45 µM
KM12 colon
  TGI: 11.6 µM
RXF 393 renal
  TGI: 2.9 µM
HOP-62 NSCLC
  TGI: 7.28 µM
SF-268 CNS
  TGI: 6.28 µM
HS 578T breast
  TGI: 5.4 µM
M14 melanoma
  TGI: 2.76 µM
UO-31 renal
  TGI: 4.34 µM
SK-OV-3 ovarian
  TGI: 6.59 µM
SF-295 CNS
  TGI: 6.53 µM
BT-549 breast
  TGI: 1.65 µM
MCF7 breast
  TGI: 2.53 µM
OVCAR-4 ovarian
  TGI: 1.2 µM
MOLT-4 leukemia
  TGI: 5.24 µM
HCC-2998 colon
  TGI: 3.79 µM
SR leukemia
  TGI: 7.73 µM
SNB-19 CNS
  TGI: 11.7 µM
IGROV1 ovarian
  TGI: 3.58 µM
SK-MEL-5 melanoma
  TGI: 2.83 µM
PC-3 prostate
  TGI: 6.85 µM
SK-MEL-2 melanoma
  TGI: 4.18 µM
CCRF-CEM leukemia
  TGI: 9.71 µM
U251 CNS
  TGI: 9.45 µM
OVCAR-8 ovarian
  TGI: 8.5 µM
A498 renal
  TGI: 3.66 µM
MDA-MB-231 breast
  TGI: 6.45 µM
HCT-15 colon
  TGI: 7.47 µM
NCI-H522 lung
  TGI: 7.47 µM
RPMI-8226 leukemia
  TGI: 4.34 µM
EKVX NSCLC
  TGI: 6 µM
DU-145 prostate
  TGI: 3.44 µM
MDA-MB-435
  TGI: 0.319 µM
T-47D breast
  TGI: 10.9 µM
UACC-257 melanoma
  TGI: 3.47 µM
NCI-H23 lung
  TGI: 3.83 µM
HL-60(TB) leukemia
  TGI: 3.74 µM
